Measured values from patent publication US20240270741A1 (Cogent Biosciences, Inc., priority 2023, published 2024).

Molecular target: FGFR2 (Homo sapiens, UniProt P21802)
Test: FGFR wild type enzyme assay (HTRF KinEASE-TK), FGFR2
Conditions: Enz FGFR2 (nM), FGFR2 wild type enzyme assay

FGFR2, sequence (P21802 399-821 limits assumed): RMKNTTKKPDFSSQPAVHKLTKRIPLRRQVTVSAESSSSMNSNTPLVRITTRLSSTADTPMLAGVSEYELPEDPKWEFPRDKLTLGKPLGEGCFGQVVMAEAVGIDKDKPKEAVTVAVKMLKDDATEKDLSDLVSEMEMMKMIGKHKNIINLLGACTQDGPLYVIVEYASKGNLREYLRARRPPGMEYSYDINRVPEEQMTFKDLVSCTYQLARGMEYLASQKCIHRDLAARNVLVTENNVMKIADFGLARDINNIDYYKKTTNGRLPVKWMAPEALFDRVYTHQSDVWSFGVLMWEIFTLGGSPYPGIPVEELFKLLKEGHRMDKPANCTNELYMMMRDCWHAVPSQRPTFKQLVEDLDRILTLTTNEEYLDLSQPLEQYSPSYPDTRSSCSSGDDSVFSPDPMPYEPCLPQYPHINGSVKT

IC50 [nM]	SMILES
1	CC(=O)N1CC[C@@H](n2cc(-c3cc(Sc4ccc(F)cc4C#N)c4c(C#N)cnn4c3)cn2)C[C@H]1C [Example 412, 6-(1-((2R,4R)-1-acetyl-2-methylpiperidin-4-yl)-1H-pyrazol-4-yl)-4-((2-cyano-4-fluorophenyl)thio)pyrazolo [1,5-a]pyridine-3-carbonitrile]
3	Cc1nn([C@H]2CCCNC2)cc1-c1cc(Sc2ccccc2C#N)c2c(C#N)cnn2c1 [Example 413, (S)-4-((2-cyanophenyl)thio)-6-(3-methyl-1-(piperidin-3-yl)-1H-pyrazol-4-yl)pyrazolo[1,5-a]pyridine-3-carbonitrile]
7	Cc1nn([C@H]2CCCNC2)cc1-c1cc(Sc2ccc(F)cc2C#N)c2c(C#N)cnn2c1 [Example 414, (S)-4-((2-cyano-4-fluorophenyl)thio)-6-(3-methyl-1-(piperidin-3-yl)-1H-pyrazol-4-yl)pyrazolo[1,5-a]pyridine-3-carbonitrile]
7	Cc1nn([C@H]2CCCNC2)cc1-c1cc(Sc2ncccc2F)c2c(C#N)cnn2c1 [Example 415, (S)-4-((3-fluoropyridin-2-yl)thio)-6-(3-methyl-1-(piperidin-3-yl)-1H-pyrazol-4-yl)pyrazolo[1,5-a]pyridine-3-carbonitrile]
4	Cc1nn([C@H]2CCCN(C(=O)CO)C2)cc1-c1cc(Sc2ncccc2F)c2c(C#N)cnn2c1 [Example 420, (S)-4-((3-fluoropyridin-2-yl)thio)-6-(1-(1-(2-hydroxyacetyl)piperidin-3-yl)-3-methyl-1H-pyrazol-4-yl)pyrazolo[1,5-a]pyridine-3-carbonitrile]
5	N#Cc1cnn2cc(-c3cnn([C@H]4CCNC4)c3)cc(Sc3ncccc3F)c12 [Example 421, (S)-4-((3-fluorop;yridin-2-yl)thio)-6-(1-(pyrrolidin-3-yl)-1H-pyrazol-4-yl)pyrazolo[1,5-a]pyridine-3-carbonitrile]
259	CC(=O)N1CCC(n2ncc(-c3cc(Sc4ncccc4F)c4c(C#N)cnn4c3)c2CO)CC1 [Example 423, 6-(1-(1-acetylpiperidin-4-yl)-5-(hydroxymethyl)-1H-pyrazol-4-yl)-4-((3-fluoropyridin-2-yl)thio)pyrazolo[1,5-a]pyridine-3-carbonitrile]
46	COCc1c(-c2cc(Sc3ccccc3C#N)c3c(C#N)cnn3c2)cnn1C1CCN(C)CC1 [Example 424, 4-((2-cyanophenyl)thio)-6-(5-(methoxymethyl)-1-(1-methylpiperidin-4-yl)-1H-pyrazol-4-yl)pyrazolo[1,5-a]pyridine-3-carbonitrile]
6	CC(=O)N1CCC[C@H](n2cc(-c3cc(Sc4ccc(F)cc4C#N)c4c(C#N)cnn4c3)c(C)n2)C1 [Example 425, (S)-6-(1-(1-acetylpiperidin-3-yl)-3-methyl-1H-pyrazol-4-yl)-4-((2-cyano-4-fluorophenyl)thio)pyrazolo [1,5-a]pyridine-3-carbonitrile]
4	Cc1nn([C@H]2CCCN(C(=O)CO)C2)cc1-c1cc(Sc2ccc(F)cc2C#N)c2c(C#N)cnn2c1 [Example 426, (S)-4-((2-cyano-4-fluorophenyl)thio)-6-(1-(1-(2-hydroxyacetyl)piperidin-3-yl)-3-methyl-1H-pyrazol-4-yl)pyrazolo[1,5-a]pyridine-3-carbonitrile]
0.4	N#Cc1ccccc1Sc1cc(-c2cnn([C@H]3CCNC3)c2)cn2ncc(C#N)c12 [Example 427, (S)-4-((2-cyanophenyl)thio)-6-(1-(pyrrolidin-3-yl)-1H-pyrazol-4-yl)pyrazolo[1,5-a]pyridine-3-carbonitrile]
1	CC(=O)N1CCC(n2cc(-c3cc(Sc4ncccc4F)c4c(C#N)cnn4c3)cn2)CC1 [Example 428, 6-(1-(1-acetylpiperidin-4-yl)-1H-pyrazol-4-yl)-4-((3-fluoropyridin-2-yl)thio)pyrazolo[1,5-a]pyridine-3-carbonitrile]
1	CC(=O)N1CCC(n2cc(-c3cc(Sc4ccc(F)cc4C#N)c4c(C#N)cnn4c3)cn2)CC1 [Example 429, 6-(1-(1-acetylpiperidin-4-yl)-1H-pyrazol-4-yl)-4-((2-cyano-4-fluorophenyl)thio)pyrazolo [1,5-a]pyridine-3-carbonitrile]
10	CN1CCC(n2cc(-c3cc(Sc4ncccc4F)c4c(C#N)cnn4c3)nn2)CC1 [Example 430, 4-((3-fluoropyridin-2-yl)thio)-6-(1-(1-methylpiperidin-4-yl)-1H-1,2,3-triazol-4-yl)pyrazolo[1,5-a]pyridine-3-carbonitrile]
2	CC(=O)N1CCC[C@H](n2ncc(-c3cc(Sc4nc(C)c(F)cc4F)c4c(C#N)cnn4c3)c2C)C1 [Example 431, (S)-6-(1-(1-acetylpiperidin-3-yl)-5-methyl-1H-pyrazol-4-yl)-4-((3,5-difluoro-6-methylpyridin-2-yl)thio)pyrazolo[1,5-a]pyridine-3-carbonitrile]
3	CC(=O)N1CCC(n2cc(-c3cc(Sc4ccc(F)cc4C#N)c4c(C#N)cnn4c3)c(C)n2)CC1 [Example 432, 6-(1-(1-acetylpiperidin-4-yl)-3-methyl-1H-pyrazol-4-yl)-4-((2-cyano-4-fluorophenyl)thio)pyrazolo [1,5-a]pyridine-3-carbonitrile]
5	Cc1c(-c2cc(Sc3ccc(F)cc3C#N)c3c(C#N)cnn3c2)cnn1[C@H]1CCCN(c2ncccn2)C1 [Example 433, (S)-4-((2-cyano-4-fluorophenyl)thio)-6-(5-methyl-1-(1-(pyrimidin-2-yl)piperidin-3-yl)-1H-pyrazol-4-yl)pyrazolo[1,5-a]pyridine-3-carbonitrile]
1	Cc1c(-c2cc(Sc3ncccc3C#N)c3c(C#N)cnn3c2)cnn1[C@H]1CCCNC1 [Example 434, (S)-4-((3-cyanopyridin-2-yl)thio)-6-(5-methyl-1-(piperidin-3-yl)-1H-pyrazol-4-yl)pyrazolo[1,5-a]pyridine-3-carbonitrile]
1	N#Cc1cc(F)ccc1Sc1cc(-c2cnn([C@H]3CCCNC3)c2)cn2ncc(C#N)c12 [Example 435, (S)-4-((2-cyano-4-fluorophenyl)thio)-6-(1-(piperidin-3-yl)-1H-pyrazol-4-yl)pyrazolo[1,5-a]pyridine-3-carbonitrile]
1	CC(=O)N1CCC(n2ncc(-c3cc(Sc4ccccc4C#N)c4c(C#N)cnn4c3)c2C)CC1 [Example 436, 6-(1-(1-acetylpiperidin-4-yl)-5-methyl-1H-pyrazol-4-yl)-4-((2-cyanophenyl)thio)pyrazolo [1,5-a]pyridine-3-carbonitrile]
1	Cc1c(-c2cc(Sc3ccccc3C#N)c3c(C#N)cnn3c2)cnn1C1CCN(C(=O)C(C)(C)C)CC1 [Example 437, 4-((2-cyanophenyl)thio)-6-(5-methyl-1-(1-pivaloylpiperidin-4-yl)-1H-pyrazol-4-yl)pyrazolo[1,5-a]pyridine-3-carbonitrile]
1	Cc1c(-c2cc(Sc3ccc(F)cc3C#N)c3c(C#N)cnn3c2)cnn1[C@H]1CC[C@@](O)(CO)CC1 [Example 438, 4-(2-cyano-4-fluoro-phenyl) sulfanyl-6-[1-[4-hydroxy-4-(hydroxymethyl)cyclohexyl]-5-methylpyrazol-4-yl] pyrazolo[1,5-a]pyridine-3-carbonitrile]
